Measured values: US8623813B2, “Synergistic combinations of polyene fungicides and non-ribosomal peptides and related methods of use” (priority 2011, dated 2014)

What was measured:
Assay type in all cases: cell-based
[1] = tested on: Saccharomyces cerevisiae wild-type strain BY4742; experiment: Saccharomyces cerevisiae liquid culture growth (OD vs untreated control), Example 1; settings: 16 hours at 30° C.
Protocol: A combination of lipopeptides and natamycin was tested for efficacy against Saccharomyces cerevisiae, which is generally recognized as a model organism for testing activity against fungi and which is closely related to Candida. See Smits, G J, et al., “Stress Tolerance in Fungi—To Kill a Spoilage Yeast,” Current Opin Biotechnol., 16(2): 225-30, (2005) and Castrillo, J I, et al., “Yeast as a Touchstone in Post-Genomic Research: Strategies for Integrative Analysis in Functional Genomics,” J Biochem Mol Biol., 37(1): 93-106, (2004).
Saccharomyces cerevisiae wild-type strain BY4742 was grown in liquid YPD in the presence of: (1) natamycin (Haorui Pharma-Chem Inc), (2) the above-described lipopeptide extract, (3) natamycin+lipopeptide extract, and 4) no lipopeptides or natamycin (control). The initial concentration of natamycin before being added to the liquid culture was 1 ppm and the initial concentration of lipopeptide extract was 15 ppm. Final concentration of natamycin in the liquid culture was 0.08 ppm and final concentration of lipopeptide extract was 1.12 ppm, such that the weight to weight ratio of natamycin to lipopeptide in the sample containing both was 1:14. […]
Gowing's Equation was applied, as follows, to determine synergism of lipopeptides with natamycin. […] Thus, X and Y are calculated by subtracting the amount of growth on a treated plate from 100, as shown below. […]

Penicillium expansum = experiment: Liquid fungal growth assay in 96-well plates, Penicillium expansum
Protocol: The effect of (i) natamycin (Haorui Pharma-Chem. Inc.), (ii) a crude extract of lipopeptides from Bacillus subtilis QST713 (prepared as described in Example 1), and (iii) a combination of natamycin and a crude extract of lipopeptides on Penicillium expansum was investigated. A liquid fungal growth assay was performed in 96-well plates to determine whether the combination of lipopeptides and natamycin is synergistic in inhibiting fungal growth. All procedures were conducted aseptically.
For each 96 well plate, three separate additions were made to each well. First, 100 μl of potato dextrose broth w/100 ppm chloramphenicol was added. […]
After the incubation period, the growth of each well in each plate was rated by optical density at 600 nm using a PerkinElmer Victor plate-reader using the setting “MIC Settings @600 (0.1 s)” that can be found in the Wallac® Victor® software. The results were also roughly assessed visually as cloudy wells (partial growth) appearing in the dilution series where the sample fell off in activity.
After an OD was obtained for each well, the relative growth was determined by the following calculation: [(Treatment w/Bacteria)−(Treatment w/o Bacteria)/(Diluent Control w/Bacteria)−(Diluent Control w/o Bacteria)]×100. […]
Synergy was then determined by Gowing's Equation, set forth above. […]

Geotrichum candidum = experiment: Liquid fungal growth assay in 96-well plates, Geotrichum candidum; settings: combinations 1:1 w/w
Protocol: For each 96 well plate, three separate additions were made to each well. First, 100 μl of potato dextrose broth w/100 ppm chloramphenicol was added. […] Finally, 50 μl of DI H2O was added to the blank plate (the plate intended to be left blank for an OD reference) OR 50 μl of 10^5 fungal inoculum was added to each well in its respective plate(s). […] The plates were then covered with lids and placed at 20° C. for 3 days of incubation. After the incubation period, the growth of each well in each plate was rated by optical density at 600 nm using a PerkinElmer Victor plate-reader using the setting “MIC Settings @600 (0.1 s)” that can be found in the Wallac® Victor® software. The results were also roughly assessed visually as cloudy wells (partial growth) appearing in the dilution series where the sample fell off in activity. After an OD was obtained for each well, the relative growth was determined by the following calculation: [(Treatment w/Bacteria)-(Treatment w/o Bacteria)/(Diluent Control w/Bacteria)-(Diluent Control w/o Bacteria)]×100. The positive control wells for bacterial growth were considered acceptable if the average and standard deviation of the OD readings at 600 nm were well above the range of the non-inoculated OD reference wells. […] Synergy was then determined by Gowing's Equation, set forth above. […]

[2] = tested on: Geotrichum citri-aurantii; experiment: Liquid fungal growth assay in 96-well plates, Geotrichum citri-aurantii; settings: each component 2.23 ppm final, combinations 1:1 w/w
Protocol: For each 96 well plate, three separate additions were made to each well. First, 100 μl of potato dextrose broth w/100 ppm chloramphenicol was added. Then 25 μl of each sample (lipopeptides, natamycin, or combo from dilution plate) was supplemented. Finally, 50 μl of DI H2O was added to the blank plate (the plate intended to be left blank for an OD reference) OR 50 μl of 10^5 fungal inoculum was added to each well in its respective plate(s). […] The plates were then covered with lids and placed at 20° C. for 3 days of incubation. After the incubation period, the growth of each well in each plate was rated by optical density at 600 nm using a PerkinElmer Victor plate-reader using the setting “MIC Settings @600 (0.1 s)” that can be found in the Wallac® Victor® software. The results were also roughly assessed visually as cloudy wells (partial growth) appearing in the dilution series where the sample fell off in activity. After an OD was obtained for each well, the relative growth was determined by the following calculation: [(Treatment w/Bacteria)-(Treatment w/o Bacteria)/(Diluent Control w/Bacteria)-(Diluent Control w/o Bacteria)]×100. The positive control wells for bacterial growth were considered acceptable if the average and standard deviation of the OD readings at 600 nm were well above the range of the non-inoculated OD reference wells. […]

Saccharomyces cerevisiae = experiment: Liquid fungal growth assay in 96-well plates (YPD), Saccharomyces cerevisiae; settings: combinations 1:1 w/w

| Structure (SMILES) | inhibition at 0.08 ppm ([1]; Saccharomyces cerevisiae, natamycin 0.08 ppm, lipopeptide extract 1.12 ppm final, read-out: growth inhibition (X, Y, Eob = 100 − growth)) | growth (OD) normalized to untreated control set at 100% ([1]; natamycin 0.08 ppm final, lipopeptide extract 1.12 ppm final (1:14 w/w), liquid YPD) | Percent Growth (Penicillium expansum; 1.1 ppm final of each component, 3 days at 20° C., OD 600 nm) | % of Growth of the Given Compound(s) at 2.23 ppm (Penicillium expansum; each component 2.23 ppm final, combinations 1:1 w/w) | % of Growth of the Given Compound(s) at 2.23 ppm (Geotrichum candidum; natamycin series, each component 2.23 ppm final) | % of Growth of the Given Compound(s) at 2.23 ppm ([2]; natamycin series) | % of Growth of the Given Compound(s) at 1.12 ppm (Saccharomyces cerevisiae; natamycin series, each component 1.12 ppm final, 30° C. overnight) | % of Growth of the Given Compound(s) at 1.12 ppm (Geotrichum candidum; nystatin series, each component 1.12 ppm final) | % of Growth of the Given Compound(s) at 2.23 ppm ([2]; nystatin series) | % of Growth of the Given Compound(s) at 0.56 ppm (Saccharomyces cerevisiae; nystatin series, each component 0.56 ppm final) |
| --- | --- | --- | --- | --- | --- | --- | --- | --- | --- | --- |
| C[C@@H]1C/C=C/C=C/C=C/C=C/[C@H](O[C@@H]2O[C@H](C)[C@@H](O)[C@H](N)[C@@H]2O)C[C@@H]2O[C@](O)(C[C@@H](O)C[C@H]3O[C@@H]3/C=C/C(=O)O1)C[C@H](O)[C@H]2C(=O)O [Natamycin, natamycin] | 22.1% | 77.89% | 102% | 35.38% | 110.4% | 57.4% | 97.4% | – | – | – |
| C[C@@H]1[C@H](O)[C@@H](C)/C=C/C=C/CC/C=C/C=C/C=C/C=C/C(O[C@H]2O[C@H](C)[C@@H](O)[C@H](N)[C@@H]2O)CC2O[C@](O)(CC(O)C(O)CCC(O)CC(O)CC(O)CC(=O)O[C@H]1C)CC(O)C2C(=O)O (stereo partly shown) [Nystatin, nystatin] | – | – | – | – | – | – | – | 96.2% | 30.5% | 96.5% |
